Source: patent EP0349941A2, “Morpholino derivatives of rhodomycins, process for their preparation and their use” (BEHRINGWERKE Aktiengesellschaft, priority 1988, dated 1990)
≈ marks a conversion by molar mass, not a printed value. Like-named read-outs stand apart in the source and are kept apart here.

Key:
L1210 = assay: Proliferation test (MTT reduction), L1210; format: cell-based, Maus; details: L1210 cells, 72 h incubation; for IC50: Mus musculus, read-out: IC₅₀ MTT-ASSAY L1210
Description: (§1) L1210, A 549 oder HT 29 in exponentieller Wachstumsphase wurden in einer Zelldichte von 5 x 10³ Zellen/ml in RPMI 1640 in einer 96 Well Mikrotiterplatte für 72 h mit unterschiedlichen Konzentrationen der Testsubstanz bei 37° C, 5 % CO₂ und 95 % relativer Luftfeuchte inkubiert. Kontrollexperimente erhielten anstelle der Testsubstanz lediglich Wachstumsmedium. Für jede Testsubstanz sowie für die Kontrolle wurden 4fach Bestimmungen angesetzt. Nach 65 h Inkubation wurden 50 µl einer MTT-Lösung (2,5 mg/ml in Phosphat-gepuffertem Kochsalz) zugegeben. In Gegenwart lebender Zellen wurde MTT zu einem dunkelroten unlöslichen Formazanfarbstoff reduziert. Diese Reaktion war nach 7 h (L1210 Zellen) bzw. nach 24 h (A 549, HT 29 Zellen) beendet und das überstehende Medium wird sorgfältig abgesaugt. Der unlösliche Farbstoff wurde durch Zugabe von 100 µl DMSO aufgelöst und die Extinktion der so entstehenden Lösung anschließend für jedes Well in einem Multiscan Photometer 340 CC der Fa. Flow bei einer Wellenlänge von 492 nm vermessen.
(§2) Aus dem Verhältnis der Extinktionen behandelter und unbehandelter Zellen ergab sich eine Dosis-Wirkungskurve, aus der die Konzentration, die gerade 50 % der Zellen (IC₅₀) abtötet, abgelesen werden konnte. Für wiederholte Untersuchungen betrug der Variationskoeffizient weniger als 15 %.

HT 29 = assay: Proliferation test (MTT reduction), HT 29; format: cell-based, menschlichen; details: HT 29 cells, 72 h incubation; for IC50: Homo sapiens, read-out: IC₅₀ MTT-ASSAY HT 29
Description: as §1, §2

A 549 = assay: Proliferation test (MTT reduction), A 549; format: cell-based, menschlichen; details: A 549 cells, 72 h incubation; for IC50: Homo sapiens, A549, read-out: IC₅₀ MTT-ASSAY A 549
Description: as §1, §2

L1210 Leukämiezellen = assay: Cytotoxicity against L1210 leukaemia cells (stem cell assay, colony formation in soft agar); format: cell-based, Maus; details: colonies counted after 5-7 days; for IC50: Mus musculus, L1210
Description: Der Test wurde entsprechend der von Hamburger und Salmon beschriebenen Methodik mit den unten beschriebenen Modifikationen durchgeführt.
Konditioniertes Medium wurde durch McCoy 5A Medium ersetzt. Als Folge der hohen Klonierungsrate der L1210 Leukämiezellen in Soft Agar wurde die Anzahl an Tumorzellen pro Platte auf 5 x 10² reduziert.
Die Zellen wurden mit unterschiedlichen Konzentrationen der Testsubstanz für 1 h bei 37° C inkubiert. Anschlie-ßend wurden die Zellen zweimal mit McCoy 5A Medium gewaschen und anschließend in einem Zwei-Schichten-Agar System als obere Schicht entsprechend der Methode von Hamburger und Salmon ausplattiert.
Zusätzliche Parallelexperimente wurden unter Verwendung einer kontinuierlichen Inkubationszeit durchgeführt, wobei unterschiedliche Konzentrationen der Testsubstanz der oberen Agarschicht vor Ausplattieren der Zellen zugemischt wurden.
Die Platten wurden in einem Brutschrank mit 5 % CO₂, 20 % O₂ und 95 % relativer Luftfeuchte für 5-7 Tage inkubiert. Nach dieser Zeit wurden Kolonien mit einem Durchmesser von 60 µm mit Hilfe eines Invertoskopes gezählt.
Die Ergebnisse wurden angegeben als prozentualer Anteil der Kolonien in behandelten versus unbehandelten Gruppen. Der Variationskoeffizient bei wiederholten Experimenten war kleiner als 15 %.
Die an den getesteten Verbindungen erhaltenen Resultate sind in der Tabelle 1 enthalten. Aus der Dosis-Wirkungskurve wurde die IC₅₀ für die kontinuierliche und einstündige Inkubation bestimmt (Tab. 1).

L1210 Leukämie der Maus = assay: In vivo efficacy against L1210 leukaemia of the mouse; details: L1210 tumour model in vivo
Description: Ascitesflüssigkeit wurde unter sterilen Bedingungen DBA2 Mäusen (weiblich, 18 - 20 g) 7 Tage nach Implantation entnommen. Der Ascites wurde dreimal mit PBS gewaschen, gezählt und auf eine Zellzahl von 10⁶ in 0.2 ml PBS eingestellt. 10⁶ Zellen, suspendiert in 0.2 ml PBS, wurden anschlie-ßend DBF1 Mäusen (weiblich, 18 - 20 g) intraperitoneal injiziert. 6 Tiere pro Gruppe wurden für jede Substanzkonzentration bzw. als Kontrolle eingesetzt.
Zur Ermittlung der antitumoralen Wirksamkeit wurden die Tiere am Tag 1 und 5 nach Injektion der Testsubstanz gewogen. Gewichtsverlust von mehr als 20 % am Tag 5 wurde als Indikator einer toxischen Substanzwirkung angesehen.
Am Ende des Experimentes (Tod aller Tiere oder überlebende Tiere am Tag 60) wurde die mittlere Überlebenszeit der Tiere in den jeweiligen Gruppen bestimmt, sofern am Tag 5 des Experimentes mindestens 65 % der Tiere noch gelebt hatten. Die mittlere Überlebenszeit wurde ausschließlich für im Verlaufe des Experimentes sterbende Tiere bestimmt. Langzeitüberlebende (LTS) wurden bei dieser Berechnung nicht berücksichtigt und gesondert aufgeführt.
Aus der mittleren Überlebenszeit (MSTr) der behandelten Gruppen sowie der Kontrollgruppen (MSTc) wurde die antitumorale Wirksamkeit (T/C) für die jeweilige Substanzkonzentration in Prozent der unbehandelten Kontrolle entsprechend der folgenden Formel bestimmt: [formula] […]

[1] = 1 h incubation at 37° C, read-out: IC₅₀ STEM CELL ASSAY 1 h exp. L1210
[2] = continuous incubation, read-out: IC₅₀ STEM CELL ASSAY cont. exp. L1210

Compound	IC50 (L1210) [µg/mL]	IC50 (HT 29) [µg/mL]	IC50 (A 549) [µg/mL]	IC50 (L1210 Leukämiezellen; [1]) [µg/mL]	IC50 (L1210 Leukämiezellen; [2]) [µg/mL]	further results
7-0-(3′-(3˝-oder 5˝-Cyano-6˝(S)-hydroxymethyl-2˝(S)-methoxy-4˝-morpholinyl)-2′,3′,6′-tri-desoxy-alpha-L-arabinohexopyranosyl)-epsilon-isorhodomycinon [XXIV]	–	–	–	–	–	IC₅₀ MTT-ASSAY L1210 (L1210): 0.0071 µg/mL; IC₅₀ MTT-ASSAY HT 29 (HT 29): 0.017 µg/mL; IC₅₀ MTT-ASSAY A 549 (A 549): 0.011 µg/mL; IC₅₀ STEM CELL ASSAY 1 h exp. L1210 (L1210 Leukämiezellen; 1 h incubation at 37° C): 0.034 µg/mL
7-0-(3′-(3˝- oder 5˝-Cyano-6˝(S)-hydroxymethyl-2˝(S)methoxy-4˝-morpholinyl)-2′,3′,6′-tri-desoxy-alpha-L-lyxohexopyranosyl)-ß-rhodomycinon [XXV]	–	–	–	–	–	IC₅₀ MTT-ASSAY L1210 (L1210): 0.0005 µg/mL; IC₅₀ MTT-ASSAY HT 29 (HT 29): 0.002 µg/mL; IC₅₀ MTT-ASSAY A 549 (A 549): 0.003 µg/mL; IC₅₀ STEM CELL ASSAY 1 h exp. L1210 (L1210 Leukämiezellen; 1 h incubation at 37° C): 0.007 µg/mL
CC[C@@]1(O)C[C@H](O[C@H]2C[C@H](N3C[C@@H](CO)O[C@H](OC)C3)[C@H](O)[C@H](C)O2)c2c(O)c3c(c(O)c2[C@H]1O)C(=O)c1cccc(O)c1C3=O [XVI, 7-0-(3′-(6˝(S)-Hydroxymethyl-2˝(S)-methoxy-4˝-morpholinyl)-2′,3′,6′-tri-desoxy-alpha-L-lyxohexopyranosyl)-ß-rhodomycinon]	0.036 (≈ 0.0558 µM)	0.11 (≈ 0.17 µM)	0.046 (≈ 0.0712 µM)	0.15 (≈ 0.232 µM)	0.026 (≈ 0.0403 µM)	–
7-0-(3′-(3˝ oder 5˝-Cyano-6˝(S)-hydroxymethyl-2˝(S)-methoxy-4˝-morpholinyl)-2′,3′,6′-tri-desoxy-alpha-L-lyxohexopyranosyl)-epsilon-isorhodomycinon [XXIII]	–	–	–	–	–	IC₅₀ MTT-ASSAY L1210 (L1210): 0.0009 µg/mL; IC₅₀ MTT-ASSAY HT 29 (HT 29): 0.0031 µg/mL; IC₅₀ MTT-ASSAY A 549 (A 549): 0.0021 µg/mL; IC₅₀ STEM CELL ASSAY 1 h exp. L1210 (L1210 Leukämiezellen; 1 h incubation at 37° C): 0.027 µg/mL
CCC1(O)CC(O[C@H]2C[C@H](N3CCOCC3)[C@H](O)[C@H](C)O2)c2c(O)c3c(c(O)c2C1C(=O)OC)C(=O)c1c(O)ccc(O)c1C3=O (stereo partly drawn) [Verbindung 26, 7-0-(3′-(4˝-Morpholinyl)-2′,3′,6′-tridesoxy-alpha-L-lyxohexopyranosyl)-epsilon-isorhodomycinon]	–	–	–	–	–	Wirkung in dem L1210 Tumormodell in vivo (L1210 Leukämie der Maus): nur eine marginale Wirkung
CC[C@@]1(O)C[C@H](O[C@H]2C[C@H](N3C[C@@H](CO)O[C@H](OC)C3)[C@H](O)[C@H](C)O2)c2c(O)c3c(c(O)c2[C@H]1C(=O)OC)C(=O)c1c(O)ccc(O)c1C3=O [VIII, 7-0-(3′-(6˝(s)-Hydroxymethyl-2˝(s)-methoxy-4˝-morpholinyl)-2′,3′,6′-tri-desoxy-alpha-L-lyxohexopyranosyl)-epsilon-isorhodomycinon]	0.009 (≈ 0.0128 µM)	0.035 (≈ 0.0497 µM)	0.038 (≈ 0.054 µM)	0.95 (≈ 1.35 µM)	0.029 (≈ 0.0412 µM)	Wirkung in dem L1210 Tumormodell in vivo (L1210 Leukämie der Maus): kurativ wirksam
CC[C@@]1(O)C[C@H](O[C@H]2C[C@H](N3C[C@H]4CO[C@@H](C3)O4)[C@H](O)[C@H](C)O2)c2c(O)c3c(c(O)c2[C@H]1O)C(=O)c1cccc(O)c1C3=O [XX, 7-0-(3′-(2˝,6˝-Epoximethano-4˝-morpholinyl)-2′,3′,6′-tridesoxy-alpha-L-lyxohexopyranosyl)-ß-rhodomycinon]	0.008 (≈ 0.013 µM)	0.036 (≈ 0.0587 µM)	0.014 (≈ 0.0228 µM)	0.12 (≈ 0.196 µM)	–	–
CC[C@@]1(O)C[C@H](O[C@H]2C[C@H](N3C[C@@H](CO)O[C@H](OC)C3)[C@@H](O)[C@H](C)O2)c2c(O)c3c(c(O)c2[C@H]1C(=O)OC)C(=O)c1c(O)ccc(O)c1C3=O [XV, 7-0-(3′-(6˝(S)-Hydroxymethyl-2˝(S)-methoxy-4˝-morpholinyl)-2′,3′,6′-tri-desoxy-alpha-L-arabinohexopyranosyl)epsilon-isorhodomycinon]	0.035 (≈ 0.0497 µM)	0.03 (≈ 0.0426 µM)	0.038 (≈ 0.054 µM)	0.32 (≈ 0.455 µM)	0.078 (≈ 0.111 µM)	–
CC[C@@]1(O)C[C@H](O[C@H]2C[C@H](N3C[C@@H](CO)O[C@@H](n4cnc5c(N)ncnc54)C3)[C@H](O)[C@H](C)O2)c2c(O)c3c(c(O)c2[C@H]1C(=O)OC)C(=O)c1c(O)ccc(O)c1C3=O [XIV]	–	–	–	0.5 (≈ 0.62 µM)	1 (≈ 1.24 µM)	–
CC[C@@]1(O)C[C@H](O[C@H]2C[C@H](N3C[C@@H](OC)O[C@@H](C)C3)[C@H](O)[C@H](C)O2)c2c(O)c3c(c(O)c2[C@H]1O)C(=O)c1cccc(O)c1C3=O [XIX, 7-0-(3′-(6˝(S)-methyl-2˝(S)-methoxy-4˝-morpholinyl)-2′, 3′,6′-tridesoxy-alpha-L-lyxohexopyranosyl)-ß-rhodomycinon]	–	–	–	0.095 (≈ 0.151 µM)	0.021 (≈ 0.0334 µM)	–
CC[C@@]1(O)C[C@H](O[C@H]2C[C@H](N3C[C@@H](CO)O[C@@H](OC)C3)[C@H](O)[C@H](C)O2)c2c(O)c3c(c(O)c2[C@H]1O)C(=O)c1cccc(O)c1C3=O [XVII, 7-0-(3′-(6˝(S)-Hydroxymethyl-2˝(R)-methoxy-4˝-morpholinyl)-2′,3′,6′-tri-desoxy-alpha-L-lyxohexopyranosyl)-ß-rhodomycinon]	–	–	–	1 (≈ 1.55 µM)	0.55 (≈ 0.852 µM)	–
CC[C@@]1(O)C[C@H](O[C@H]2C[C@H](N3C[C@@H](CO)O[C@@H](OC)C3)[C@H](O)[C@H](C)O2)c2c(O)c3c(c(O)c2[C@H]1C(=O)OC)C(=O)c1c(O)ccc(O)c1C3=O [IX, 7-0-(3′-(6˝(S)-Hydroxymethyl-2˝(R)-methoxy-4˝-morpholinyl)-2′,3′,6′-tri-desoxy-alpha-L-lyxohexopyranosyl)-epsilon-isorhodomycinon]	–	–	–	1 (≈ 1.42 µM)	0.12 (≈ 0.171 µM)	–
